Laboratory results: ChEMBL document CHEMBL1137964, “Synthesis and biological evaluation of 6-aryl-6H-pyrrolo[3,4-d]pyridazine derivatives: high-affinity ligands to the alpha 2 delta subunit of voltage gated calcium channels” (Bioorg Med Chem Lett, 2004)

Legend:
[1] = biological target: Voltage-dependent calcium channel subunit alpha-2/delta-1 (Homo sapiens, UniProt P54289); experiment: Binding affinity for huamn alpha2-delta1 subunit of voltage gated calcium channel over-expressed in A710 cell membranes using [3H]-gabapentin
Sequence of Voltage-dependent calcium channel subunit alpha-2/delta-1 (P54289 25-956 limits assumed): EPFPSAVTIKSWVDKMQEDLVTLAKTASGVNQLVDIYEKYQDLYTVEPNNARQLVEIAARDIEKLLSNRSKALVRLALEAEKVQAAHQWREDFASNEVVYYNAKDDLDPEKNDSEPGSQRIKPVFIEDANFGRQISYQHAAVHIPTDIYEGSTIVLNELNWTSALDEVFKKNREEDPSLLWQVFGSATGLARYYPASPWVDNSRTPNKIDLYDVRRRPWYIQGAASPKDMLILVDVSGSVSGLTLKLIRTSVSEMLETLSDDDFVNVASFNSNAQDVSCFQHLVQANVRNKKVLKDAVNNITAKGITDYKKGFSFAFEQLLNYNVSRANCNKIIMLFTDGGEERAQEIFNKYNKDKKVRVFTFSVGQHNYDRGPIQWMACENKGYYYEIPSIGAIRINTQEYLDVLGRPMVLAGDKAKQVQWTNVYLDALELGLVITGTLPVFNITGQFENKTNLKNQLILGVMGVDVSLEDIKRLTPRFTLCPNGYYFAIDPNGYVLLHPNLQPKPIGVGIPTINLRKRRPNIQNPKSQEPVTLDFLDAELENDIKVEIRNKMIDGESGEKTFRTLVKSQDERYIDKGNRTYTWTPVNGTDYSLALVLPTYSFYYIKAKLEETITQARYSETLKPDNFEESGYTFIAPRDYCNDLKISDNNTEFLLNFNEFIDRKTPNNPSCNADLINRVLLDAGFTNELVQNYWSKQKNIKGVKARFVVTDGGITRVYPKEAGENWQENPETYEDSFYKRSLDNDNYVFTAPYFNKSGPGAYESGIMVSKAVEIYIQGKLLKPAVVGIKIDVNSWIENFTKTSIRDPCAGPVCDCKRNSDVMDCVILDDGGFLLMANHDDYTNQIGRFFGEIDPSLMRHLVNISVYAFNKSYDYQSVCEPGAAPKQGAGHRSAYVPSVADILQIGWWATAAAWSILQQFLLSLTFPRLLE
Sequence of Voltage-dependent calcium channel subunit alpha-2/delta-1 (P54289 957-1103 limits assumed): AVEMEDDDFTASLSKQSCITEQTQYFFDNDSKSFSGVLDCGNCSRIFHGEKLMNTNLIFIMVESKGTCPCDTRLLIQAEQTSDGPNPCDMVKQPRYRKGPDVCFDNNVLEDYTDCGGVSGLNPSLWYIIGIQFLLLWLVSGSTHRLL

[2] = Maximum plasma concentration in rats at 10 mg/kg, p.o. dose; type: ADME, organism-based; set-up: dose 10 mg/kg, route oral; conditions: rat, po
[3] = Plasma clearance rate was determined in rats at 2 mg/kg, i.v. dose; type: ADME, organism-based; set-up: dose 2 mg/kg, route intravenous; conditions: rat, iv, read-out: Clp
[4] = Plasma concentration was determined in rats at 10 mg/kg, p.o. dose; type: ADME, organism-based; set-up: dose 10 mg/kg, route oral; conditions: rat, po
[5] = system: Rattus norvegicus; experiment: Time required by compound for reaching maximum plasma concentration was determined in rats at 20 mg/kg, i.p. dose; type: ADME, organism-based; set-up: dose 20 mg/kg, route intraperitoneal; conditions: in vivo, ip
[6] = Half-life period was determined in rats at 2 mg/kg, i.v. dose; type: ADME, organism-based; set-up: dose 2 mg/kg, route intravenous; conditions: rat, in vivo, iv
[7] = Plasma concentration was determined in rats at 2 mg/kg, i.v. dose; type: ADME, organism-based; set-up: dose 2 mg/kg, route intravenous; conditions: rat, iv
[8] = system: Rattus norvegicus; experiment: Time required by compound for reaching maximum plasma concentration was determined in rats at 10 mg/kg, p.o. dose; type: ADME, organism-based; set-up: dose 10 mg/kg, route oral; conditions: in vivo, po
[9] = Plasma concentration was determined in rats at 20 mg/kg, i.p. dose; type: ADME, organism-based; set-up: dose 20 mg/kg, route intraperitoneal; conditions: rat, ip
[10] = Volume of distribution at steady state was determined in rats at 2 mg/kg, i.v. dose; type: ADME, organism-based; set-up: dose 2 mg/kg, route intravenous; conditions: rat, in vivo, iv, read-out: Vdss
[11] = Bioavailability was determined in rats at 10 mg/kg, p.o. dose; type: ADME, organism-based; conditions: rat, in vivo, po
[12] = Half-life period was determined in rats at 10 mg/kg, p.o. dose; type: ADME, organism-based; set-up: dose 10 mg/kg, route oral; conditions: rat, in vivo, po
[13] = Half-life period was determined in rats at 20 mg/kg, i.p. dose; type: ADME, organism-based; set-up: dose 20 mg/kg, route intraperitoneal; conditions: rat, in vivo, ip
[14] = Maximum plasma concentration in rats at 20mg/kg, i.p. dose; type: ADME, organism-based; set-up: dose 20 mg/kg, route intraperitoneal; conditions: rat, ip

Row | IC50 [1] | SMILES | further results
1 | 171 nM | CCOc1ccc(-n2c(C)c3c(C)nnc(CC(C)C)c3c2C)cc1 | –
2 | 1260 nM | CCOc1ccc(-n2c(C)c3c(C)nnc(-c4ccc(-c5ccccc5)cc4)c3c2C)cc1 | –
3 | > 10000 nM | CCOc1cccc(-n2c(C)c3c(C)nnc(C)c3c2C)c1 | –
4 | 1600 nM | CCOc1ccc(-n2c(C)c3c(C)nnc(-c4cccc(Cl)c4)c3c2C)cc1 | –
5 | 180 nM | CCOc1ccc(-n2c(C)c3c(C)nnc(C)c3c2C)cc1 | Cmax [2]: 3.6 µM; clearance [3]: 18.5 mL/min/kg; AUC [4]: 27 µM·h; T max [5]: 0.3 h; half-life [6]: 0.91 h; AUC [7]: 6.4 µM·h; T max [8]: 2.8 h; AUC [9]: 141 µM·h; Vd [10]: 1.3 L/kg; bioavailability [11]: 81%; half-life [12]: 4.5 h; half-life [13]: 1.2 h; Cmax [14]: 101 µM
6 | 263 nM | CCOc1ccc(-n2c(C)c3c(C)nnc(CCC(C)C)c3c2C)cc1 | –
7 | 737 nM | CCOc1ccc(-n2c(C)c3c(C)nnc(-c4ccccc4OC)c3c2C)cc1 | –
8 | 577 nM | CCOc1ccc(-n2c(C)c3c(C)nnc(CC(C)CC(C)(C)C)c3c2C)cc1 (stereo not drawn) | –
9 | 170 nM | CCOc1ccc(-n2c(C)c3c(C)nnc(C4CC4)c3c2C)cc1 | –
10 | 240 nM | CCOc1ccc(-n2c(C)c3c(C)nnc(Nc4ccc(C)cc4)c3c2C)cc1 | –
11 | 4370 nM | CCOc1ccc(-n2c(C)c3c(C)nnc(-c4ccccc4Cl)c3c2C)cc1 | –
12 | 2180 nM | CCOc1ccc(-n2c(C)c3c(C)nnc(OC)c3c2C)cc1 | –
13 | > 10000 nM | COc1ccc(-n2c(C)c3c(C)nnc(C)c3c2C)cc1 | –
14 | > 10000 nM | CCOc1ccc(-n2c(C)c3c(C)nnc(Nc4ccc(N)cc4)c3c2C)cc1 | –
15 | 597 nM | CCOc1ccc(-n2c(C)c3c(C)nnc(-c4ccc(OC)cc4OC)c3c2C)cc1 | –
16 | 107 nM | CCOc1ccc(-n2c(C)c3c(C)nnc(-c4ccc(CC)cc4)c3c2C)cc1 | –
17 | 86 nM | CCOc1ccc(-n2c(C)c3c(C)nnc(-c4ccc(C)cc4)c3c2C)cc1 | –

Row | IC50 [1] | SMILES | further results
18 | 1850 nM | CCOc1ccccc1-n1c(C)c2c(C)nnc(C)c2c1C | –
19 | 170 nM | CCOc1ccc(-n2c(C)c3c(C)nnc(N(C)C)c3c2C)cc1 | –
20 | 360 nM | CCCCCc1nnc(C)c2c(C)n(-c3ccc(OCC)cc3)c(C)c12 | –
21 | 335 nM | CCOc1ccc(-n2c(C)c3c(C)nnc(-c4cccc(OC)c4)c3c2C)cc1 | –
22 | 148 nM | CCOc1ccc(-n2c(C)c3c(C)nnc(CCC4CCCC4)c3c2C)cc1 | –
23 | 382 nM | CCOc1ccc(-n2c(C)c3c(C)nnc(-c4ccccc4)c3c2C)cc1 | –
24 | 528 nM | CCOc1ccc(-n2c(C)c3c(C)nnc(-c4ccc(F)cc4)c3c2C)cc1 | –
25 | 440 nM | CCOc1ccc(-n2c(C)c3c(C)nnc(Nc4ccc(OC)cc4)c3c2C)cc1 | –
26 | 250 nM | CCOc1ccc(-n2c(C)c3c(C)nnc(CC)c3c2C)cc1 | –
27 | 40 nM | CCOc1ccc(-n2c(C)c3c(C)nnc(NC)c3c2C)cc1 | –
28 | 235 nM | CCOc1ccc(-n2c(C)c3c(C)nnc(C4CCCCC4)c3c2C)cc1 | –
29 | 1730 nM | CCOc1ccc(-n2c(C)c3c(C)nnc(-c4ccc(OC(F)(F)F)cc4)c3c2C)cc1 | –
30 | 185 nM | CCOc1ccc(-n2c(C)c3c(C)nnc(C4CCCC4)c3c2C)cc1 | –
31 | 75 nM | CCOc1ccc(-n2c(C)c3c(C)nnc(Nc4ccccc4)c3c2C)cc1 | –
32 | > 10000 nM | CCOc1ccc(-n2c(C)c3c(C)nnc(Nc4ccncc4)c3c2C)cc1 | –
33 | 701 nM | CCOc1ccc(-n2c(C)c3c(C)nnc(-c4ccc(Cl)cc4)c3c2C)cc1 | –
34 | 153 nM | CCOc1ccc(-c2nnc(C)c3c(C)n(-c4ccc(OCC)cc4)c(C)c23)cc1 | –

Row | SMILES | IC50 [1] | further results
35 | CCOc1ccc(-n2c(C)c3c(C)nnc(CC4CCCC4)c3c2C)cc1 | 211 nM | –
